According to patent US5981551A, “2,5-diimino-3a,6a-diaryl-1,2,3,3a,4,5,6,6a-octahydroim idazo[4,5-d]imidazoles which are effective as G-CSF mimetics” (SmithKline Beecham Corporation, priority 1998, dated 1999):
Structures can show the parent of a compound that is named as a salt.

target: T1, G-CSF receptor (Mus musculus, UniProt P40223); experiment: Luciferase assay in NFS60 cells (G-CSF mimetic potency); assay type: cell-based; details: concentration range of 1 to 32 uM
T1 construct: NSF60 cells express endogenous G-CSF receptors; endogenous in cells; host or cells: NFS60 cells
T1 sequence (P40223 26-837): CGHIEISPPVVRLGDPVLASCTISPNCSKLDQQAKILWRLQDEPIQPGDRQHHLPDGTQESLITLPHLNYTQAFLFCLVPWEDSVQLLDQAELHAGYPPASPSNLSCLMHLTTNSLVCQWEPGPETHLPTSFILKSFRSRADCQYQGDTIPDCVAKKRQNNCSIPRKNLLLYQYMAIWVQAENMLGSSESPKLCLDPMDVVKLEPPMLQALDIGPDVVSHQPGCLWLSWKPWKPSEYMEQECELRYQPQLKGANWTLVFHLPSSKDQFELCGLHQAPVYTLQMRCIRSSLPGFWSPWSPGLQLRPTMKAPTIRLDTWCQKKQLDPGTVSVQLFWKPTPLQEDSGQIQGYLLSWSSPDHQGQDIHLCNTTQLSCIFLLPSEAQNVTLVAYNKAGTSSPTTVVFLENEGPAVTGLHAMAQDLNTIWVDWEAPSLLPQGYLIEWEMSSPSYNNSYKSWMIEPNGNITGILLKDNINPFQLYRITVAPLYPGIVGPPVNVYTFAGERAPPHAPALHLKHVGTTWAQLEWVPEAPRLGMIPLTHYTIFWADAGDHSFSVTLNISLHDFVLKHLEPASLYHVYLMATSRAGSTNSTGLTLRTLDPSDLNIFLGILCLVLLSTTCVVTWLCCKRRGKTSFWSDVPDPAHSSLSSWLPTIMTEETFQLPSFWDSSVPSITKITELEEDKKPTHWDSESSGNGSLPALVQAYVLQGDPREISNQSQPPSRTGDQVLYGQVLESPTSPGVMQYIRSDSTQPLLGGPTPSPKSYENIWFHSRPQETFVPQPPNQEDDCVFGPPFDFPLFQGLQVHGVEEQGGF
Source text: Luciferase Assay […] Natl. Acad. Sci., USA 92: 3041-3045 (1995) by substituting NFS60 cells for the HepG2 cells utilized therein. The NFS60 cells (Holmes, et al., Proc. Natl. Acad. Sci. USA 82: 6687-6691 (1985)) were substituted for the HepG2 cells in the Lamb assay because the NSF60 cells express endogenous G-CSF receptors closely matching the pattern of STAT (signal transducers and activators of transcription) activation observed in primary murine and human bone marrow cells.

SMILES | activation, % of control, in the luciferase assay
c1ccc(C23NC(=Nc4nc5ccccc5[nH]4)NC2(c2ccccn2)NC(=Nc2nc4ccccc4[nH]2)N3)nc1 (stereo not drawn) [Example 1] | above 150 % of control
c1ccc(C23NC(=Nc4nc5ccccc5[nH]4)NC2(c2ccccc2)NC(=Nc2nc4ccccc4[nH]2)N3)cc1 (stereo not drawn) [Example 2] | above 150 % of control
c1coc(C23NC(=Nc4nc5ccccc5[nH]4)NC2(c2ccco2)NC(=Nc2nc4ccccc4[nH]2)N3)c1 (stereo not drawn) [Example 3, 2,5-bis[2-benzimidazolylimino]-3a,6a-bis(2-furyl)-1,2,3,3a,4,5,6,6a-bis(2-pyridyl)octahydroimidazo[4.5-d]imidazole] | ≤ 150 % of control
Cc1csc(N=C2NC3(c4ccccn4)NC(=Nc4nc(C)cs4)NC3(c3ccccn3)N2)n1 (stereo not drawn) [Example 13, 2,5-bis[(4-methyl-2-thiazolyl)imino]-3a,6a-bis(2-pyridyl)-1,2,3,3a,4,5,6a-octahydroimidazo[4,5-d]imidazole] | above 150 % of control
c1ccc(C23NC(=Nc4nc5ccccc5o4)NC2(c2ccccn2)NC(=Nc2nc4ccccc4o2)N3)nc1 (stereo not drawn) [Example 14, 2,5-bis[2-benzoxazolylimino]-3a,6a-bis(2-pyridyl)-1,2,3a,4,5,6,6a-octahydroimidazo[4,5-d]imidazole] | ≤ 150 % of control
Fc1ccc2nc(N=C3NC4(c5ccccn5)NC(=Nc5nc6ccccc6[nH]5)NC4(c4ccccn4)N3)[nH]c2c1.O=C(O)C(F)(F)F.O=C(O)C(F)(F)F (stereo not drawn) [Example 19, 5-(2-benzimidazolylimino)-2-[(5-fluoro-2-benzimidazolyl)imino]-3a,6a-bis(2-pyridyl)-1,2,3,3a,4,5,6,6a-octahydroimidazo[4,5-d]imidazole bis(trifluoroacetate) salt] | ≤ 150 % of control
Fc1ccc2nc(N=C3NC4(c5ccccn5)NC(=Nc5nc6ccc(F)cc6[nH]5)NC4(c4ccccn4)N3)[nH]c2c1 (stereo not drawn) [Example 20, 2,5-bis[(5-fluoro-2-benzimidazolyl)imino]-3a,6a-bis(2-pyridyl-1,2,3,3a4,5,6,6a-octahydroimidazo[4,5-d]imidazolebis(trifluoroacetate) salt] | above 150 % of control
Cc1cc2nc(N=C3NC4(c5ccccn5)NC(=Nc5nc6cc(C)c(C)cc6[nH]5)NC4(c4ccccn4)N3)[nH]c2cc1C (stereo not drawn) [Example 25, 2,5-bis[(5.6-dimethyl-2-benzimidazolyl)imino]-3a,6a-bis(2-pyridyl)-1,2,2a,4,5,6,6a-octahydroimidazo[4,5-d]imidazole bis(trifluoroacetate) salt] | above 150 % of control
Cc1cc2nc(N=C3NC4(c5ccccn5)NC(=Nc5nc6ccccc6[nH]5)NC4(c4ccccn4)N3)[nH]c2cc1C (stereo not drawn) [Example 26, 5-[2-benzimidazolylimino]-2-[(5,6-dimethyl-2-benzimidazolyl)imino]-3a,6a-bis(2-pyridyl)-1,2,2a,4,5,6,6a-octahydroimidazo[4,5-d]imidazole bis(trifluoroacetate) salt] | above 150 % of control
c1ccc(C23NC(=Nc4nc5ccccc5[nH]4)NC2(c2ccccn2)NC(=Nc2nc4ccccc4s2)N3)nc1 (stereo not drawn) [Example 30, 5-[2-benzimidazolylimino]-2-[2-benzothiazolylimino]-3a,6a-bis(2-pyridyl)-1,2,3a,4,5,6,6a-octahydroimidazo[4,5-d]imidazole bis(trifluoroacetate)] | above 150 % of control
O=C(O)c1ccc2nc(N=C3NC4(c5ccccn5)NC(=Nc5nc6ccccc6[nH]5)NC4(c4ccccn4)N3)[nH]c2c1 (stereo not drawn) [Example 31, 5-[(2-benzimidazolylimino]1-2-[(5-carboxy-2-benzimidazolyl)imino]-3a,6a-bis(2-pyridyl)-1,2,3,3a,4,5,6,6a-octahydroimidazo[4,5-d]imidazolebis(trifluoroacetate) salt] | ≤ 150 % of control
Ic1ccc2nc(N=C3NC4(c5ccccn5)NC(=Nc5nc6ccc(I)cc6[nH]5)NC4(c4ccccn4)N3)[nH]c2c1.O=C(O)C(F)(F)F.O=C(O)C(F)(F)F (stereo not drawn) [Example 32a, 2,5-bis[(5-iodo-2-benzimidazolyl)imino]-3a,6a-bis(2-pyridyl)-1,2,3,3a,4,5,6,6a-octahydroimidazo[4,5-d]imidazole bis(trifluoroacetate) salt] | ≤ 150 % of control
Ic1ccc2nc(N=C3NC4(c5ccccn5)NC(=Nc5nc6ccccc6[nH]5)NC4(c4ccccn4)N3)[nH]c2c1 (stereo not drawn) [Example 32b, 5-[2-benzimidazolylimino]-2-[(5-iodo-2-benzimidazolyl)imino]-3a,6a-bis(2-pyridyl)-1,2,2a,4,5,6,6a-octahydroimidazo[4,5-d]imidazole bis(trifluoroacetate) salt] | above 150 % of control
Brc1ccc(C23NC(=Nc4nc5ccccc5[nH]4)NC2(c2ccc(Br)cc2)NC(=Nc2nc4ccccc4[nH]2)N3)cc1 (stereo not drawn) [Example 33, 2,5-bis[2-benzimidazolylimino]-3a,6a-bis(4-bromophenyl)-1,2,3,3a,4,5,6,6a-octahydroimidazo[4,5-d]imidazole] | ≤ 150 % of control
FC(F)(F)c1ccc(C23NC(=Nc4nc5ccccc5[nH]4)NC2(c2ccc(C(F)(F)F)cc2)NC(=Nc2nc4ccccc4[nH]2)N3)cc1 (stereo not drawn) [Example 34, 2,5-bis[2-benzimidazolylimino]-3a,6a-bis(4-trifluoromethylphenyl)-1,2,3,3a,4,5,6,6a-octahydroimidazo[4,5-d]imidazole] | above 150 % of control
Clc1cccc(C23NC(=Nc4nc5ccccc5[nH]4)NC2(c2ccccc2)NC(=Nc2nc4ccccc4[nH]2)N3)c1 (stereo not drawn) [Example 35, 2,5-bis[2-benzimidazolylimino]-3a-(3-chlorophenyl)-6a-phenyl-1,2,3,3a,4,5,6,6a-octahydroimidazo[4,5-d]imidazole] | above 150 % of control
Clc1ccccc1C12NC(=Nc3nc4ccccc4[nH]3)NC1(c1ccccc1)NC(=Nc1nc3ccccc3[nH]1)N2 (stereo not drawn) [Example 36, 2,5-bis[2-benzimidazolylimino]-3a-(2-chlorophenyl)-6a-phenyl-1,2,3,3a,4,5,6,6a-octahydroimidazo[4,5-d]imidazole] | ≤ 150 % of control
Cc1ccc2nc(N=C3NC4(c5ccccc5)NC(=Nc5nc6ccccc6[nH]5)NC4(c4ccccn4)N3)[nH]c2c1.O=C(O)C(F)(F)F.O=C(O)C(F)(F)F (stereo not drawn) [Example 37, 5-(2-benzimidazolylimino)-2-[(5-methyl-2-benzimidazolyl)imino]-3a-(2-pyridyl)-6a-phenyl-1,2,3,3a,4,5,6,6a-octahydroimidazo[4,5-d]imidazole bis(trifluoroacetate) salt] | above 150 % of control
Cn1c(N=C2NC3(c4ccccc4)NC(=Nc4nc5ccccc5n4C)NC3(c3ccccc3)N2)nc2ccccc21 (stereo not drawn) [Example 38, 2,5-bis[(1-methyl-2-benzimidazolyl)imino]-3a,6a-diphenyl-1,2,3,3a,4,5,6,6a-octahydromidazo[4,5-d]imidazole] | ≤ 150 % of control
Cc1ccc(C23NC(=Nc4nc5ccccc5n4C)NC2(c2ccc(C)cc2)NC(=Nc2nc4ccccc4n2C)N3)cc1 (stereo not drawn) [Example 39, 2,5-bis[(1-methyl-2-benzimidazolyl)imino]-3a,6a-bis(4-methylphenyl)-1,2,3,3a,4,5,6,6a-octahydromidazo[4,5-d]imidazole] | above 150 % of control
Cn1c(N=C2NC3(c4ccc(Br)cc4)NC(=Nc4nc5ccccc5n4C)NC3(c3ccc(Br)cc3)N2)nc2ccccc21 (stereo not drawn) [Example 40, 2,5-bis[(1-methyl-2-benzimidazolyl)imino]-3a,6a-bis(4-bromophenyl)-1,2,3,3a,4,5,6,6a-octahydromidazo[4,5-d]imidazole] | ≤ 150 % of control
